From patent US20190134128A1, “METHOD FOR PRODUCING CELASTROL AND PENTACYCLIC TRITERPENE DERIVATIVES” (PIERRE FABRE DERMO-COSMETIQUE, priority 2016, published 2019) come the findings set out here.

In experiment [1] the test system is Propionibacterium acnes (CIP 53117T). Kind of experiment: Antimicrobial activity (MIC/MBC, micro-method in liquid medium) against Propionibacterium acnes. Format: cell-based. Particulars: 24 h. The procedure:
Activity is evaluated on Propionibacterium acnes (CIP 53117T), with an inoculation suspension at 10^8 CFU/mL. The maintenance medium is Columbia agar+5% sheep blood, with incubation for 24 hours at 36±1° C. under anaerobic conditions. The test medium is composed of Mueller Hinton broth+10% foetal calf serum (FCS) and Columbia agar+5% sheep blood, with incubation for 24 h at 36±1° C. under anaerobic conditions. The determination of minimum inhibitory concentrations (MICs) is performed by micro-method in liquid medium. 100 μL of liquid culture medium is deposited in each well of a sterile 96-well microplate. 100 μL of the product to be tested is deposited in the first well of a row. One-half dilutions are then made from wells 1 to 10. Propionibacterium acnes test suspensions are prepared extemporaneously in tryptone salt. 100 μL is deposited in each well of a second microplate, except column 11. All of the first microplate is inoculated, using a Denley multipoint inoculator, from the second microplate. After incubation, MICs are defined as the highest dilution with no visible growth. Columns 11 and 12 serve as negative and positive growth control, respectively. Two references were tested in parallel. The determination of minimum bactericidal concentrations (MBCs) is performed by subculturing MIC microplates on agar medium using the Denley multipoint inoculator. After incubation, MBC is defined as the highest dilution with no visible growth. All tests are performed in duplicate.

For experiment [2], the system named is S. aureus CIP 4.83. Kind of experiment: Antimicrobial activity (MIC/MBC) against Staphylococcus aureus. Format: cell-based.
Experiment [3] has as its system NFκB. Kind of experiment: Inhibitory activity against NFκB in HaCaT keratinocytes stimulated with TNF-alpha. It counts as cell-based, human. Particulars: 2 μM, TNF-alpha 0.3 ng/mL. The source says: The transcription factor NFκB controls the expression of a large number of genes involved in regulation of the inflammatory response. […] Certain pro-inflammatory stimuli such as TNF-alpha and IL-1-beta lead to the activation of NFκB, i.e. its nuclear translocation. Once in the nucleus, NFκB will induce the transcription of pro-inflammatory genes encoding cytokines, chemokines, adhesion molecules, growth factors and inducible enzymes.
The anti-inflammatory activities of the extracts obtained from the suspensions contained in Erlenmeyer flasks E1, E2, E3 and E6 of example 8 were evaluated in vitro on human HaCaT keratinocytes according to the method described by Albanesi et al. The extracts, weighed in dry weight, were taken up in a buffer and introduced into a HaCaT cell culture solution in equivalent final concentrations (ng/mL) for each extract and incubated for 1 hour. NFκB expression is then induced by stimulation with TNF-alpha (0.3 ng/mL).

Where [4] appears, read: Staphylococcus aureus, CIP4, 24 h.
Where [5] appears, read: Propionibacterium acnes, anaerobic.
[6] abbreviates: S. aureus CIP 4.83, 36° C., 24 h.

Molecules are shown by their SMILES. Values after ≈ are worked out from the molar mass of the structure shown. Bounds are passed on as bounds.

On to `CC1=C(O)C(=O)C=C2C1=CC=C1[C@@]2(C)CC[C@@]2(C)[C@@H]3C[C@](C)(C(=O)O)CC[C@]3(C)CC[C@]12C` [Celastrol, celastrol], for which the values for the MBC in experiment [1] (Cutibacterium acnes) and in experiment [2] (setting [4]) were 1.17 µg/mL (≈ 2.6 µM) and 0.59 µg/mL (≈ 1.31 µM), respectively. For the same compound, the figures for the MIC in experiment [1] (Cutibacterium acnes) and in experiment [2] (setting [4]) were 0.59 µg/mL (≈ 1.31 µM) and 0.29 µg/mL (≈ 0.644 µM), respectively.

With `C[S+](C)[O-]` [DMSO], in experiment [1] (setting [5]), the MBC (as a rule, the lowest tested concentration that kills the bacteria rather than only halting them) is 5 µg/mL (≈ 64 µM) and the MIC (usually the lowest concentration that inhibits growth of the organism) was 5 µg/mL (≈ 64 µM). In experiment [2] (setting [6]), the MBC was more than 5 µg/mL and the minimal inhibitory concentration (MIC) is more than 5 µg/mL.

For the compound `C[C@@H]1C[C@H]2[C@@H]3CCC4=CC(=O)C=C[C@]4(C)[C@@]3(F)[C@@H](O)C[C@]2(C)[C@@]1(O)C(=O)CO` [Dexamethasone], the “% inhibition of NFκB expression with respect to induction of TNF-alpha” value in experiment [3] is listed as “more than 40%”; in experiment [3] (listed as Dex), 42.5%.

Take `CC1=C(O)C(=O)C=C2C1=CC=C1[C@@]2(C)CC[C@@]2(C)C3C[C@@H](C)C(=O)C[C@]3(C)CC[C@]12C` (stereo partly drawn) [Tingenin A, tingenin A]: in experiment [1] (Cutibacterium acnes), the minimum bactericidal concentration (MBC) stood at 2.34 µg/mL (≈ 5.56 µM) and the lowest concentration to inhibit growth (MIC) was 2.34 µg/mL (≈ 5.56 µM). In experiment [2] (setting [4]), the minimal bactericidal concentration (MBC) amounted to 2.34 µg/mL (≈ 5.56 µM) and the MIC was 1.17 to 2.34 µg/mL (≈ 2.78 to 5.56 µM).

In experiment [1] (Cutibacterium acnes), `CC1=C(O)C(=O)C=C2C1=CC=C1[C@@]2(C)CC[C@@]2(C)[C@@H]3C[C@@H](C)C(=O)[C@@H](O)[C@]3(C)CC[C@]12C` [Tingenin B, tingenin B] returned an MBC of 1.17 µg/mL (≈ 2.68 µM) and an MIC of 1.17 µg/mL (≈ 2.68 µM). Besides, in experiment [2] (setting [4]), the minimal bactericidal concentration (MBC) came to 1.17 µg/mL (≈ 2.68 µM) and the MIC came to 0.59 µg/mL (≈ 1.35 µM).
